For one molecule, Km results are on record in publication PMC7588914, “Luminescence of Cypridina Luciferin in the Presence of Human Plasma Alpha 1-Acid Glycoprotein” (International Journal of Molecular Sciences, 2020).

In the experiment the test system is T1, human plasma alpha 1-acid glycoprotein (hAGP).
T1 construct: gene ORM1; native, purified from human plasma (commercial, Sigma-Aldrich); secreted glycoprotein, signal peptide removed; plasma preparation is normally a mix of ORM1 and ORM2 products
Put plainly: luminescence intensity, Michaelis-Menten fit. The class given is biochemical. Particulars: 50 mM Gly-NaOH pH 9.5, room temperature, 25 μg/mL hAGP; hAGP treated as a luciferase.

What is called Km is the substrate concentration at which the rate is half of its maximum. For `CC[C@H](C)c1nc2c(CCCNC(=N)N)[nH]c(-c3c[nH]c4ccccc34)cn-2c1=O` [Cypridina luciferin], the Km amounted to 0.46 µM.
